Data published in ChEMBL document CHEMBL1201862, “PubChem BioAssay data set” (2004).
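Grown in 96-well plates, cells were treated for 48 hours with each compound at five concentrations. Insufficient inhibition: endpoint recorded as highest concentration tested. The concentration for 50% growth inhibition is given as GI50.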 Activity calls are given as the source filed them. Cut-off read from the data, not from the text of the source: active = GI50 up to about 1.1 µM and inactive = higher.

How the values were obtained:
Experiment in all cases: DTP human tumour cell line panel, 48 h
NCI-H460 = test system: NCI-H460
CAKI-1 = test system: CAKI-1
ACHN = test system: ACHN
HCC 2998 = test system: HCC 2998
MCF7 = test system: MCF7
786-0 = test system: 786-0
SK-MEL-2 = test system: SK-MEL-2
NCI/ADR-RES = test system: NCI/ADR-RES
PC-3 = test system: PC-3
HL-60 = test system: HL-60
EKVX = test system: EKVX
LOX IMVI = test system: LOX IMVI
OVCAR-8 = test system: OVCAR-8
SK-OV-3 = test system: SK-OV-3
NCI-H522 = test system: NCI-H522
DU-145 = test system: DU-145
SF-295 = test system: SF-295
NCI-H23 = test system: NCI-H23
NCI-H226 = test system: NCI-H226
IGROV-1 = test system: IGROV-1

Measured: GI50

Cc1nc(Nc2nc3ccccc3[nH]2)[nH]c(=O)c1CCO
inactive: NCI-H460 34.6 µM | CAKI-1 53.5 µM | ACHN 50.9 µM | HCC 2998 > 100 µM | MCF7 > 100 µM | 786-0 65.6 µM | SK-MEL-2 37.2 µM | NCI/ADR-RES > 100 µM | PC-3 > 100 µM | HL-60 75.9 µM | EKVX > 100 µM | LOX IMVI 44.8 µM | OVCAR-8 > 53.2 µM | SK-OV-3 38.3 µM | NCI-H522 > 100 µM | DU-145 61.7 µM | SF-295 > 100 µM | NCI-H23 98.6 µM | NCI-H226 26.6 µM | IGROV-1 12.3 µM

CCOC(=O)C(SCCO)C(C(=O)OCC)n1cnc2c(=O)[nH]c(NC(C)=O)nc21 (stereo not given)
inactive: NCI-H460 > 100 µM | CAKI-1 > 100 µM | ACHN > 100 µM | HCC 2998 > 100 µM | MCF7 > 100 µM | 786-0 > 100 µM | SK-MEL-2 > 100 µM | NCI/ADR-RES > 100 µM | PC-3 > 100 µM | HL-60 > 100 µM | EKVX > 100 µM | LOX IMVI 51.8 µM | OVCAR-8 > 100 µM | SK-OV-3 > 100 µM | NCI-H522 > 100 µM | DU-145 > 100 µM | SF-295 > 100 µM | NCI-H23 > 100 µM | NCI-H226 > 100 µM | IGROV-1 > 100 µM
